The values below come from patent US9926271B2, “Octahydrocyclopentapyrroles, their preparation and use” (The Trustees of Columbia University in the City of New York, priority 2013, dated 2018).

The target of data set [1] is T1, RBP4-TTR interaction (Homo sapiens, UniProt P02753). The data set is described as follows: TR-FRET (HTRF) assay for retinol-induced RBP4-TTR interaction. The format is biochemical. Further details: human RBP4 fragment (amino acids 19-201); host or cells: Gold(DE3)pLysS E. coli strain (Stratagene), pMAL-c4x vector. The note with it: in the presence of 1 μM retinol; read-out: HTRF assay for antagonists of RBP4-TTR interaction: IC50. The text has this: TR-FRET Assay for Retinol-Induced RBP4-TTR Interaction
Binding of a desired RBP4 antagonist displaces retinol and induces hindrance for RBP4-TTR interaction resulting in the decreased FRET signal (FIG. 7). Bacterially expressed MBP-RBP4 and untagged TTR were used in this assay. […] Following cell lysis, recombinant RBP4 was purified from the soluble fraction using the ACTA FPLC system (GE Healthcare) equipped with the 5-ml the MBP Trap HP column. Human untagged TTR was purchased from Calbiochem. Untagged TTR was labeled directly with Eu^3+ Cryptate-NHS using the HTRF Cryptate Labeling kit from CisBio following the manufacturer's recommendations. HTRF assay was performed in white low volume 384 well plates (Greiner-Bio) in a final assay volume of 16 μl per well. The reaction buffer contained 10 mM Tris-HCl pH 7.5, 1 mM DTT, 0.05% NP-40, 0.05% Prionex, 6% glycerol, and 400 mM RE. […] Titration of test compounds in this assay was conducted in the presence of 1 μM retinol. All reactions were assembled in the dark under dim red light and incubated overnight at +4° C. wrapped in aluminum foil. TR-FRET signal was measured in the SpectraMax M5e Multimode Plate Reader (Molecular Device). Fluorescence was excited at 337 nm and two readings per well were taken: Reading 1 for time-gated energy transfer from Eu(K) to d2 (337 nm excitation, 668 nm emission, counting delay 75 microseconds, counting window 100 microseconds) and Reading 2 for Eu(K) time-gated fluorescence (337 nm excitation, 620 nm emission, counting delay 400 microseconds, counting window 400 microseconds). The TR-FRET signal was expressed as the ratio of fluorescence intensity: Flu665/Flu620×10,000.
(In general: In TR-FRET formats the signal depends on donor and acceptor labels being close together.)

The target of data set [2] is T2, RBP4 (Homo sapiens, UniProt P02753). In words: Scintillation proximity RBP4 binding assay (SPA). Further details: Untagged human RBP4 purified from urine of tubular proteinuria patients; purchased Fitzgerald Industries International; host or cells: urine of tubular proteinuria patients. The note with it: 10 nM 3H-Retinol, 50 nM biotinylated RBP4. As to the method:
Scintillation Proximity RBP4 Binding Assay
Untagged human RBP4 purified from urine of tubular proteinuria patients was purchased from Fitzgerald Industries International. It was biotinylated using the EZ-Link Sulfo-NHS-LC-Biotinylation kit from Pierce following the manufacturer's recommendations. Binding experiments were performed in 96-well plates (OptiPlate, PerkinElmer) in a final assay volume of 100 μl per well in SPA buffer (1×PBS, pH 7.4, 1 mM EDTA, 0.1% BSA, 0.5% CHAPS). The reaction mix contained 10 nM ^3H-Retinol (48.7 Ci/mmol; PerkinElmer), 0.3 mg/well Streptavidin-PVT beads, 50 nM biotinylated RBP4 and a test compound. Nonspecific binding was determined in the presence of 20 μM of unlabeled retinol. The reaction mix was assembled in the dark under dim red light. The plates were sealed with clear tape (TopSeal-A: 96-well microplate, PerkinElmer), wrapped in the aluminum foil, and allowed to equilibrate 6 hours at room temperature followed by overnight incubation at +4° C. Radiocounts were measured using a TopCount NXT counter (Packard Instrument Company).
Background: Scintillation proximity formats need no separation of bound from free tracer.

Data set [3] deals with T2, RBP4. The note with it: cited from earlier work.
Data set [4] concerns the target T1, RBP4-TTR interaction. The note with it: cited from earlier work.
For the next data set, the system named is serum RBP4 and retinol. The note with it: in vivo; cited from earlier work.
A further data set has as its system Abca4−/− mice. The note with it: animal model of excessive bisretinoid accumulation; cited from earlier work.
The subject of data set [5] is retinal pigment epithelium cells. The note with it: many cell types, including the retinal pigment epithelium cells; cited from earlier work.
The subject of a further data set is mice. The note with it: cited from earlier work.

With `Cc1cc(C(=O)O)cc(N2C[C@H]3C[C@@H](c4ccccc4C(F)(F)F)C[C@H]3C2)n1` [Compound 70, 2-Methyl-6-((3aR,5r,6aS)-5-(2-(trifluoromethyl)phenyl)hexahydrocyclopenta[c]pyrrol-2(1H)-yl)isonicotinic Acid], the IC50 (in general, the midpoint of a concentration-inhibition curve) amounted to 229 nM at RBP4-TTR interaction [1] and 53.2 nM at RBP4 [2].

As for `Cc1nc(N2C[C@H]3C[C@@H](c4ccccc4C(F)(F)F)C[C@H]3C2)nc(C(=O)O)c1C` [Compound 74, 5,6-Dimethyl-2-((3aR,5r,6aS)-5-(2-(trifluoromethyl)phenyl)hexahydrocyclopenta[c]pyrrol-2(1H)-yl)pyrimidine-4-carboxylic Acid], the figures for the IC50 on RBP4-TTR interaction [1] and on RBP4 [2] were 123 nM and 48.7 nM, respectively.

Turning to `COc1cc(C(=O)O)nc(N2C[C@H]3C[C@@H](c4ccccc4C(F)(F)F)C[C@H]3C2)n1` [Compound 62, 6-Methoxy-2-((3aR,5r,6aS)-5-(2-(trifluoromethyl)phenyl)hexahydrocyclopenta[c]pyrrol-2(1H)-yl)pyrimidine-4-carboxylic Acid], the IC50 at RBP4-TTR interaction [1] was 86.7 nM; at RBP4 [2], 14.3 nM.

For the molecule `O=C(O)c1cccnc1N1C[C@H]2C[C@@H](c3ccccc3C(F)(F)F)C[C@H]2C1` [Compound 71, 2-((3aR,5r,6aS)-5-(2-(Trifluoromethyl)phenyl)hexahydrocyclopenta[c]pyrrol-2(1H)-yl)nicotinic Acid], the IC50 at RBP4-TTR interaction [1] is 382 nM; at RBP4 [2] it was 43.8 nM.

Consider `Cc1cc(C(=O)O)nc(N2C[C@H]3C[C@@H](c4cc(F)ccc4C(F)(F)F)C[C@H]3C2)n1` [Compound 72, 2-((3aR,5r,6aS)-5-(5-Fluoro-2-(trifluoromethyl)phenyl)hexahydrocyclopenta[c]pyrrol-2(1H)-yl)-6-methylpyrimidine-4-carboxylic Acid], for which the figures for the concentration for half-maximal inhibition (IC50) on RBP4-TTR interaction [1] and on RBP4 [2] were 49.2 nM and 54.3 nM, respectively.

Consider `O=C(O)c1cnc(N2C[C@H]3C[C@@H](c4ccccc4C(F)(F)F)C[C@H]3C2)nc1` [Compound 68], for which the IC50 on RBP4-TTR interaction [1] amounted to 1860 nM; on RBP4 [2] it was 172 nM.

On to `CC(C)c1cc(C(=O)O)nc(N2C[C@H]3C[C@@H](c4ccccc4C(F)(F)F)C[C@H]3C2)n1` [Compound 63, 6-Isopropyl-2-((3aR,5r,6aS)-5-(2-(trifluoromethyl)phenyl)hexahydrocyclopenta[c]pyrrol-2(1H)-yl)pyrimidine-4-carboxylic Acid], for which the IC50 stood at 203 nM on RBP4-TTR interaction [1] and 158 nM at RBP4 [2].

As for `O=C(O)c1ccnc(N2C[C@H]3C[C@@H](c4ccccc4C(F)(F)F)C[C@H]3C2)n1` [Compound 64, 2-((3aR,5r,6aS)-5-(2-(Trifluoromethyl)phenyl)hexahydrocyclopenta[c]pyrrol-2(1H)-yl)pyrimidine-4-carboxylic Acid], the figures for the half-inhibitory concentration (IC50) at RBP4-TTR interaction [1] and on RBP4 [2] were 79.6 nM and 27.2 nM, respectively.

Take `Cc1cc(C(=O)O)nc(N2C[C@H]3C[C@@H](c4ccccc4C(F)(F)F)C[C@H]3C2)c1` [Compound 69, 4-Methyl-6-((3aR,5r,6aS)-5-(2-(trifluoromethyl)phenyl)hexahydrocyclopenta[c]pyrrol-2(1H)-yl)picolinic Acid]: the IC50 on RBP4-TTR interaction [1] amounted to 295 nM; at RBP4 [2] it was 14 nM.

For the molecule `O=C(O)c1nc(N2C[C@H]3C[C@@H](c4ccccc4C(F)(F)F)C[C@H]3C2)ncc1F` [Compound 67], the figures for the IC50 on RBP4-TTR interaction [1] and on RBP4 [2] were 276 nM and 25.9 nM, respectively.

In the case of `Cc1cnc(N2C[C@H]3C[C@@H](c4ccccc4C(F)(F)F)C[C@H]3C2)nc1C(=O)O` [Compound 66], the half-maximal inhibitory concentration (IC50) on RBP4-TTR interaction [1] turned out to be 596 nM; on RBP4 [2], 90 nM.

`Cc1cc(NC(=O)N2C[C@H]3C[C@@H](c4ccccc4C(F)(F)F)C[C@H]3C2)c(C(=O)O)cn1` [Compound 73, 6-Methyl-4-((3aR,5r,6aS)-5-(2-(trifluoromethyl)phenyl)octahydrocyclopenta[c]pyrrole-2-carboxamido)nicotinic Acid]: the IC50 on RBP4 [2] came out at 23.9 nM.

Consider `O=C(O)c1cc(C(F)(F)F)nc(N2C[C@H]3C[C@@H](c4ccccc4C(F)(F)F)C[C@H]3C2)n1` [Compound 65, 6-(Trifluoromethyl)-2-((3aR,5r,6aS)-5-(2-(trifluoromethyl)phenyl)hexahydrocyclopenta[c]pyrrol-2(1H)-yl)pyrimidine-4-carboxylic Acid], for which the IC50 on RBP4-TTR interaction [1] amounted to 88 nM; at RBP4 [2], 9.5 nM.

Turning to `CC1=C(/C=C/C(C)=C/C=C/C(C)=C/C(=O)Nc2ccc(O)cc2)C(C)(C)CCC1` [fenretinide, N-(4-hydroxy-phenyl)retinamide], the “binding to RBP4, displacement of all-trans retinol” value on RBP4 [3] is recorded as “bind to RBP4”. Also, the RBP4-TTR interaction result at RBP4-TTR interaction [4] was “disrupt the RBP4-TTR interaction”. Moreover, the “serum RBP4 and retinol” value in the data set on serum RBP4 and retinol is “reduce serum RBP4 and retinol”. Besides, in the data set with Abca4−/− mice, the A2E production result is “reduced A2E production”. Also, the induction of apoptosis result in data set [5] is recorded as “extremely active inducer of apoptosis”. Also, the formation of hemangiosarcomas result with mice is “stimulate formation of hemangiosarcomas”.
